Patent US6136801A, “Therapeutic agent with quantitative consumption marker” (U. D. Testing, Inc., priority 1998, dated 2000)

Experiments:
[1] = Normalized urine compliance marker (diazepam) concentration in patients, FPIA, normalized to urine SG 1.030 and 154 lbs body weight; conditions: diazepam 2 mg p.o. q12h
[2] = Renal excretion rates as a function of urine volume production rate; assay type: in vivo, human
Description: This constancy has now been experimentally verified by examining the renal excretion rates of methadone, benzodiazepines, other drugs and creatinine and other endogenous metabolites as a function of urine volume production rate. For example, sequential, complete and timed (1-8 hours holding periods) aliquots of urine for 12 compliant control subjects were collected over 24 to 72 hour periods. For each urine aliquot, urine volume production rate (ml/min), specific gravity and creatinine concentration (mg/dl) (as the tested substance) were determined.

Q: With `CN1C(=O)CN=C(c2ccccc2)c2cc(Cl)ccc21` [diazepam] as the molecule, how does the “MEAN NU FOR […]” value ([1]; Experiment #1, patient P-1, methadone 30 mg p.o. q12h) read?
A: The value was 500 (SD 90, CV 18%).

Q: And the “MEAN NU FOR […]” value ([1]; Experiment #1, patient P-3, methadone 30 mg p.o. q12h)?
A: Its value is 499 (SD 73, CV 15%).

Q: For `CCC(=O)C(CC(C)N(C)C)(c1ccccc1)c1ccccc1` (stereo not drawn) [methadone], which “renal excretion rates during a typical day” value [2] is on record?
A: Its value is “relatively constant”.
